The numbers were not newly measured in patent publication US20070027073A1, “Long-acting derivatives of pyy agonists” (priority 2003, published 2007), which cites them from elsewhere.

For this data set the following is noted: in vivo.

As for `CCCCCCCCCCC[C@@H](C[C@@H]1OC(=O)[C@H]1CCCCCC)OC(=O)[C@H](CC(C)C)NC=O` [Orlistat], the “reduction of fat adsorption through the gut” value is recorded as “about one third”.
